# Laboratory results reported in US5300629A, “Bactericidal and/or bacteriostatic peptides isolated from hemolymph of honeybees” (Plant Genetic Systems, N.V., priority 1987, dated 1994).
# Where a SMILES comes first, the peptide text is derived from it.
# Test system: Corynebacterium insidiosum NCPPB 1109
# Experiment: Minimal inhibitory concentration in liquid culture
# Format: cell-based
# Conditions: 200 μl rich medium, 10^4 log-phase bacteria
# Description: In addition the exact concentration was determined precisely by amino-acid analysis and an equal sample of natural Bee 6b was prepared, allowing to compare the bactericidal activity of both natural and synthetic apidaecins by means of growth inhibition assays in liquid cultures (see mat & Meth.). The minimal inhibitory concentrations (μg/ml) were determined in liquid culture : 200 μl of a rich medium (trypticase soy broth or nutrient broth) was inoculated with 10^4 log-phase bacteria. Peptide concentrations ranged between 0 and 200 μg/ml. The values express μg/ml; when no inhibition was noticed the maximal values are given (+200 μg/ml or +50 μg/ml). All peptides were chemically synthesized, except for bee 6b which is purified from bee lymph.
compound,measurement,value
CC[C@H](C)[C@H](NC(=O)[C@H](Cc1ccc(O)cc1)NC(=O)[C@@H](NC(=O)[C@@H]1CCCN1C(=O)[C@H](CCCNC(=N)N)NC(=O)[C@H](CC(N)=O)NC(=O)[C@H](CC(N)=O)NC(=O)CN)C(C)C)C(=O)N[C@@H](CCC(N)=O)C(=O)N1CCC[C@H]1C(=O)N[C@@H](CCCNC(=N)N)C(=O)N1CCC[C@H]1C(=O)N1CCC[C@H]1C(=O)N[C@@H](Cc1c[nH]cn1)C(=O)N1CCC[C@H]1C(=O)N[C@@H](CCCNC(=N)N)C(=O)N[C@@H](CC(C)C)C(=O)O [Apid PT-1] (H-GNNRPVYIQPRPPHPRL-OH),minimal inhibitory concentration,50 µg/mL
